The source of these data is patent US5132424A, “Pyrazolo-pyrrolo-pyrimidine-diones” (The Upjohn Company, priority 1991, dated 1992).

Experiment [1] relates to ACAT enzyme. Put plainly: ACAT Inhibition Assay (inhibition of cholesterol esterification in cultured Fu5AH rat hepatoma cells). The following applies: for % Inhib. of Chol. Esterf.: Fu5AH cells, 18 hours; for Activity: compared with chlorpromazine. The format is cell-based. Further details: key to Activity: Active: Compounds with ACAT inhibiting activity equal to, or greater than, that of chloropromazine are declared active. An excerpt:
A standard in vitro test system designed to identify compounds capable of inhibitory the ACAT enzyme in cultured Fu5AH rat hepatoma cells which was used to test the compounds of this invention, among others, is described hereinbelow.
Since the ACAT enzyme in Fu5AH cells is similar if not identical to the ACAT enzyme in arterial tissue in valuable, warm-blooded animals, including humans, the Fu5AH cell test represents a more efficient, simplified and economical means of screening for ACAT inhibitors than similar assays which depend upon the use of arterial tissue and arterial subfractions as the source of the ACAT enzyme.
For our in vitro test the Fu5AH rat hepatoma cell line was selected as our source of the ACAT enzyme since this particular cell line mimicked important characteristics of human and valuable animal arterial cells during the development of atherosclerosis. The Fu5AH cells accumulate cholesterol extensively when incubated with hyperlipemic plasma proteins; more importantly, Fu5HA cells accumulated the cholesterol predominantly as the esterified form through the action of the ACAT enzyme. See Rothblat, G. H., "Cholesteryl Ester Metabolism in Tissue Culture Cell. I. Accumulation in Fu5AH Rat Hepatoma Cells", Lipids, 9, (1974) page 526.
The Fu5AH cells used in our in vitro assay were first acquired from G. H. Rothblat, supra, of the Medical College of Pa.
The Fu5AH rat hepatoma cell-line was derived from the Reuber H-35 rat hepatoma. (See Reuber, M.D., "A Transplantable Bilesecreting Hepatocellular Carcinoa in the Rat", J. Natl., Cancer Inst., 26 (1961), page 891. The cell-line is maintained in Eagle's Minimal Essential Medium (MEM, GiBCO) supplemented with 5% bovine fetal calf serum. Incubation is at 36° C. in an atmosphere of 5% CO2 in air (Hotpack, Model 351922). Cells from stock cultures, grown to confluency in 25 cm^2 flasks (Falcon) containing 10 ml. medium, are detached with 0.25% trypsin in 1% ethylenediaminetetraacetic acid (EDTA) (Gibco), diluted 1:10 with MEM and mixed by agitation through a pipette which serves to disrupt the cellular clumps. Stock cultures are replenished with fresh medium at 3 to 4 day intervals.
One ml. aliquots of the diluted stock suspension described above are then transferred to 60 mm. dishes (Falcon) containing four ml. MEM and the seeded cells are allowed to grow to confluence (three days). At confluence, the medium is removed by aspiration and the cells are washed once with MEM. Five ml. of MEM supplemented with 5% hyperlipemic rabbit serum (HRS) (HRS is obtained from male New Zealane rabbits fed Purina Chow® rabbit feed supplemented with 1% cholesterol and 3% peanut oil (w/w/w/) for two to three weeks. Pooled sera from two or more rabbits are filtered through a 0.45 mμ filter (Nalgene) and stored frozen in convenient aliquots until used) and containing 1μ Ci/ml of ^3 H-cholesterol are then added to the dishes as the experimental (assay) medium. The experimental medium is labeled with 1,2-^3 H(N)-cholesterol (sp. act. approx. 40-60 Ci/mol, New Zealand Nuclear Corp.) prior to its addition to the confluent cultures and is prepared as follows. Five ml. of HRS is diluted with approximately 20 ml of MEM and the mixture is labeled by the addition of 100 μCi ^3 H-cholesterol dissolved in 100 μl absolute ethyl alcohol. The resulting mixture is then incubated for four hours at 36° C. to permit equilibration of the labeled cholesterol with the serum lipoprotein-cholesterol. After the equilibration period, the mixture is diluted to 100 ml. with MEM and used as the labeled assay medium. Following the addition of the labeled medium to the dishes, dimethylsulfoxide solutions of the test substances and the positive standard chloropromazine HCl (1 mg/ml) are added to the cultures in volumes of 25, 50, […]; control cultures receive equivalent volumes of dimethylsufoxide alone. […]

For experiment [2], the system named is Moderately Hypercholesterolemic Quail. Put plainly: In vivo testing in moderately hypercholesterolemic quail (serum LDL cholesterol). Details: species or system Japanese quail. The following applies: compound in diet, two weeks. An excerpt:
Male SEA Japanese quail, approximately four to six weeks of age, were reared at Miles Quail Farm, Gobles, Mich. from a colony of animals originally derived at The Upjohn Company. Birds were randomly distributed into ten groups of ten quail each. They were house individually in ten cage units and fed a commercial diet (Purina Game Bird Layena, Ralston Purina Co., St. Louis, Mo.) mixed with various amounts of cholesterol with and without 1% peanut oil. Compounds were mixed into 2.4 kg of the diet using a feed mixer (Hobard A-200) for twenty minutes. Control groups received normal diet. In one series of experiments birds were fed 0.5% cholesterol/1% peanut oil plus colestipol hydrochloride. After two weeks on the diets, each bird was bled from the right jugular vein and serum samples were obtained after low speed centrifugation. Food intake was determined for each group by subtracting the weight of diet remaining at the end of the experiment from the weight of the starting diet.
Beta- and alpha-lipoproteins were isolated from individual serum samples using PEG-8000 and glycerine buffer, pH 9 (9). Three hundred microliters of serum were mixed with 300 microliters of solution. A (20 grams of PEG-8000 plus 100 ml of glycerine buffer, pH 9) using a Micromedic automatic pipet. Samples were allowed to stand at room temperature for ten minutes and then were centrifuged for twenty minutes at 2000× g at 4° C. The beta-lipoprotein pellet was dissolved in 300 microliters of solution B (10 ml Triton X-100 plus 1000 ml Milli Q water). Cholesterol, triglycerides and total protein in alpha- and beta-lipoproteins were measured using the Deman Autoanalyzer, Model AU 500 (Cooper Biomedical Inc.) and Worthington Demand Enzymatic reagents.
All data were statistically analyzed using a one-way classification design. Values were transformed to logarithms to achieve more homogenous within-group variances. The mean response for each diet and for the effect was compared with the mean observed in the control animals by the LSD test. Treated/control ratios of antilogs of the log means are also presented.

In experiment [3] the test system is ACAT enzyme. The following applies: known drug; cited from earlier work.
The subject of another experiment is membranes. The following applies: known drug; cited from earlier work.
Experiment [4] relates to blood platelet aggregation. The following applies: known drug; cited from earlier work.

Regarding `C=CCCCCn1c2c(c(=O)n3nc(-c4ccccc4)cc13)CN(C1CCCCC1)C2=O` [Example 1, 6-Cyclohexyl-4-(5-hexenyl)-6,7-dihydro-2-phenyl-4H-pyrazolo[1,5-a]pyrrolo[3,4-d]pyrimidine-5,8-dione], the “% Inhib. of Chol. Esterf.” value in the experiment with ACAT enzyme [1] (5.0 ug/ml) is on record as 68.6%; in the experiment on ACAT enzyme [1] (10.0 ug/ml), 93.2%; with ACAT enzyme [1] (15.0 ug/ml), 96.1%. Also, the outcome in the experiment with ACAT enzyme [1] (5.0 ug/ml), in the experiment on ACAT enzyme [1] (10.0 ug/ml) and with ACAT enzyme [1] (15.0 ug/ml) was Active. Also, the “Percent Change in Serum LDL Cholesterol From Control” value (“Percent Change” below) in experiment [2] is reported as -42%.
Take `O=C1c2c(c(=O)n3nc(-c4ccccc4)cc3n2Cc2ccccc2)CN1C1CCCCC1` [Example 2, 6-Cyclohexyl-6,7-dihydro-2-phenyl-4-(phenylmethyl)-4H-pyrazolo[1,5-a]pyrrolo[3,4-d]pyrimidine-5,8-dione]: the “% Inhib. of Chol. Esterf.” value in the experiment on ACAT enzyme [1] (5.0 ug/ml) was 60.1%; in the experiment on ACAT enzyme [1] (10.0 ug/ml), 87.7%; with ACAT enzyme [1] (15.0 ug/ml), 93.6%. The outcome in the experiment with ACAT enzyme [1] (5.0 ug/ml), in the experiment on ACAT enzyme [1] (10.0 ug/ml) and in the experiment with ACAT enzyme [1] (15.0 ug/ml) was Active. For the same molecule, in experiment [2], the “Percent Change” value is -50%.
As to `O=C(Cn1c2c(c(=O)n3nc(-c4ccccc4)cc13)CN(C1CCCCC1)C2=O)c1ccccc1` [Example 4, 4-(Benzoylmethyl)-6-cyclohexyl-6,7-dihydro-2-phenyl-4H-pyrazolo[1,5-a]pyrrolo-[3,4-d]pyrimidine-5,8-dione], the “% Inhib. of Chol. Esterf.” value is recorded as 88.6% in the experiment with ACAT enzyme [1] (5.0 ug/ml), 92.2% with ACAT enzyme [1] (10.0 ug/ml) and 91.9% with ACAT enzyme [1] (15.0 ug/ml). Also, the outcome with ACAT enzyme [1] (5.0 ug/ml), in the experiment on ACAT enzyme [1] (10.0 ug/ml) and in the experiment with ACAT enzyme [1] (15.0 ug/ml) was Active. In addition, in the experiment with ACAT enzyme [1] (among the compounds of Table I), the “potency for ACAT enzyme inhibition (in words)” value was “most potent compound”. Also, the “Percent Change” value in experiment [2] is -59%.
For the molecule `CN(C)CCCN1c2ccccc2Sc2ccc(Cl)cc21` [chlorpromazine], in the experiment on ACAT enzyme [3], the “ACAT enzyme inhibition (in words)” value is “ACAT enzyme inhibitor”. Besides, the “change of membrane fluidity (in words)” value in the experiment on membranes is “change the fluidity of membranes”. The “blood platelet aggregation inhibition (in words)” value in experiment [4] is recorded as “blood platelet aggregation inhibition properties”.
